Assay results reported in US8513234B2, “HIV integrase inhibitors” (Merck Sharp & Dohme Corp., priority 2008, dated 2013).
Read-outs that look alike come from different tables or passages of the source.

Experiments:
wild type IIIB = assay: Single cycle infectivity assay in HeLa P4-2 cells, wild type virus; assay type: cell-based, HIV; settings: single cycle infectivity, wild type IIIB, read-out: wild type IIIB IC50
HIV-1 = assay: Inhibition of acute HIV-1 infection of T-lymphoid cells (spread assay); assay type: cell-based
Procedure: Assay for Inhibition of HIV-1 Replication
Assays for the inhibition of acute HIV-1 infection of T-lymphoid cells were conducted in accordance with Vacca, J. P. et al, Proc. Natl. Acad. Sci. USA 1994, 91: 4096.

[1] = target: T1, recombinant integrase (HIV-1 integrase) (Human immunodeficiency virus type 1 group M subtype B, UniProt P04585); assay: HIV-1 integrase assay: strand transfer catalyzed by recombinant integrase; assay type: biochemical; settings: strand transfer activity
T1 construct: Assays for the strand transfer activity of integrase were conducted in accordance with WO 02/30930 for recombinant integrase
Procedure: HIV-1 Integrase Assay: Strand Transfer Catalyzed by Recombinant Integrase
Assays for the strand transfer activity of integrase were conducted in accordance with WO 02/30930 for recombinant integrase. […] For example, the compounds prepared in Examples 1 to 5 were tested in the integrase assay and found to have the IC50 values in Table B. (Compounds 6A and 6B were not tested in this assay.)
Further description on conducting the assay using preassembled complexes is found in Wolfe, A. L. et al., J. Virol. 1996, 70: 1424-1432, Hazuda et al., J. Virol. 1997, 71: 7005-7011; Hazuda et al., Drug Design and Discovery 1997, 15: 17-24; and Hazuda et al., Science 2000, 287: 646-650.

[2] = tested on: virus containing Y143R mutation in the integrase gene; settings: k = IC50(mutant)/IC50(wild type)
Procedure: (§1) An assay for measuring the inhibition of acute HIV infection with HeLa P4-2 cells in a single cycle infectivity assay was conducted using methods described in Joyce et al., J. Biol. Chem. 2002, 277: 45811, Hazuda et al., Science 2000, 287: 646, and Kimpton et al, J. Virol. 1992, 66: 2232. Proviral plasmids encoding viruses containing specific mutations in the integrase gene (N155H, Q148R, Y143R, E92Q, or G140S/Q148H) were generated by site-directed mutagenesis, and viruses were produced by transfecting 293T cells with the appropriate proviral plasmids.

[3] = tested on: virus containing N155H mutation in the integrase gene; settings: k = IC50(mutant)/IC50(wild type)
Procedure: as §1

[4] = tested on: virus containing G140S/Q148H mutation in the integrase gene; settings: k = IC50(mutant)/IC50(wild type)
Procedure: as §1

[5] = tested on: virus containing Q148R mutation in the integrase gene; settings: k = IC50(mutant)/IC50(wild type)
Procedure: as §1

[6] = Human immunodeficiency virus 1, IIIB, HeLaP4-2, HeLa P4-2 cells

| Compound | IC50 (wild type IIIB; [6]) [µM] | IC95 (nM) in the presence of 10% FBS (HIV-1) [nM] | IC50 ([1]; IC50 (nM)) [nM] | Number of fold shift in IC50 versus wild type IIIB, Y143R [2] | Number of fold shift in IC50 versus wild type IIIB, N155H [3] | Number of fold shift in IC50 versus wild type IIIB, G140S/Q148H [4] | Number of fold shift in IC50 versus wild type IIIB, Q148R [5] | IC50 ([1]; read-out: IC50) [nM] | IC50 (wild type IIIB; HeLa P4-2 cells) [µM] |
| --- | --- | --- | --- | --- | --- | --- | --- | --- | --- |
| CO[C@@]1(C)CC[C@H](N(C)C(=O)C(=O)N(C)C)c2nc(C(=O)NCc3ccc(F)c(C)c3)c(O)c(=O)n2C1 [Compound 2B, N-((7S,10S)-2-{[(4-fluoro-3-methylbenzyl)amino]carbonyl}-3-hydroxy-7-methoxy-7-methyl-4-oxo-4,6,7,8,9,10-hexahydropyrimido[1,2-a]azepin-10-yl)-N,N′,N′-trimethylethanediamide] | 0.008 | 9 | 41 | 3 | 24 | 190 | 24 | – | – |
| Cc1cc(CNC(=O)c2nc3n(c(=O)c2O)CC(C)(C)CC[C@@H]3N(C)C(=O)C(=O)N(C)C)ccc1F [Compound 1B, N-((10S)-2-{[(4-fluoro-3-methylbenzyl)amino]carbonyl}-3-hydroxy-7,7-dimethyl-4-oxo-4,6,7,8,9,10-hexahydropyrimido[1,2-a]azepin-10-yl)-N,N′,N′-trimethylethanediamide] | 0.013 | 10 | – | 1 | 14 | 34 | 12 | 38 | – |
| Cc1cc(CNC(=O)c2nc3n(c(=O)c2O)CC(C)(C)CC[C@H]3N(C)C(=O)C(=O)N(C)C)ccc1F [Compound 1A, N-((10R)-2-{[(4-fluoro-3-methylbenzyl)amino]carbonyl}-3-hydroxy-7,7-dimethyl-4-oxo-4,6,7,8,9,10-hexahydropyrimido[1,2-a]azepin-10-yl)-N,N′,N′-trimethylethanediamide] | 0.041 | 12 | – | 1 | 1 | 9 | 2 | 42 | – |
| Cc1cc(CNC(=O)c2nc3n(c(=O)c2O)[C@@H](C)COC[C@@H]3N(C)C(=O)C(=O)N(C)C)ccc1F [Compound 4B, N-((6S,10R)-2-{[(4-fluoro-3-methylbenzyl)amino]carbonyl}-3-hydroxy-6-methyl-4-oxo-6,7,9,10-tetrahydro-4H-pyrimido[1,2-d][1,4]oxazepin-10-yl)-N,N′,N′-trimethylethanediamide] | 0.032 | 7 | – | 2 | 2 | 20 | 3 | 39 | – |
| Cc1ccc(CNC(=O)c2nc3n(c(=O)c2O)C(C)CCCC3N(C)C(=O)C(=O)N(C)C)cc1F (single isomer, unassigned) [Compound 3B, Cis-N-(2-{[(3-fluoro-4-methylbenzyl)amino]carbonyl}-3-hydroxy-6-methyl-4-oxo-4,6,7,8,9,10-hexahydropyrimido[1,2-a]azepin-10-yl)-N,N′,N′-trimethylethanediamide] | 0.048 | 41 | 44 | 1 | 1 | 2 | 1 | – | – |
| CCN(C(=O)C(=O)N(C)C)[C@H]1CC[C@H](OC)Cn2c1nc(C(=O)NCc1ccc(F)cc1)c(O)c2=O [Compound 6B, N-ethyl-N-((7S,10S)-2-{[(4-fluorobenzyl)amino]carbonyl}-3-hydroxy-7-methoxy-4-oxo-4,6,7,8,9,10-hexahydropyrimido[1,2-a]azepin-10-yl)-N,N-dimethylethanediamide] | 0.013 | 14 | – | >100 | 13 | >100 | >100 | – | – |
| CC[C@@H]1COC[C@H](N(C)C(=O)C(=O)N(C)C)c2nc(C(=O)NCc3ccc(F)cc3)c(O)c(=O)n21 [Compound 5C, N-((6R,10R)-6-ethyl-2-{[(4-fluorobenzyl)amino]carbonyl}-3-hydroxy-4-oxo-6,7,9,10-tetrahydro-4H-pyrimido[1,2-d][1,4]oxazepin-10-yl)-N N′N′-trimethylethanediamide] | 0.021 | 14 | – | 2 | 7 | 116 | 7 | 41 | – |
| COC1(C)CCC(N(C)C(=O)C(=O)N(C)C)c2nc(C(=O)NCc3ccc(F)c(C)c3)c(O)c(=O)n2C1 (single isomer, unassigned) [Compound 2C, N-(2-{[(4-fluoro-3-methylbenzyl)amino]carbonyl}-3-hydroxy-7-methoxy-7-methyl-4-oxo-4,6,7,8,9,10-hexahydropyrimido[1,2-a]azepin-10-yl)-N,N′,N′-trimethylethanediamide] | – | 9 | 73 | 3 | 19 | 68 | 22 | – | 0.008 |
| Cc1ccc(CNC(=O)c2nc3n(c(=O)c2O)[C@H](C)CCC[C@H]3N(C)C(=O)C(=O)N(C)C)cc1F (racemic) [Compound 3A, Racemic-trans-N-(2-{[(3-fluoro-4-methylbenzyl)amino]carbonyl}-3-hydroxy-6-methyl-4-oxo-4,6,7,8,9,10-hexahydropyrimido[1,2-a]azepin-10-yl)-N,N′,N′-trimethylethanediamide] | 0.031 | 18 | – | – | 1 | 4 | 1 | 40 | – |
| CN(C)C(=O)C(=O)N(C)C1COCCn2c1nc(C(=O)NCc1ccc(F)cc1)c(O)c2=O (single isomer, unassigned; (+)) [Compound V, (+)N-(2-{[(4-fluorobenzyl)amino]carbonyl}-3-hydroxy-4-oxo-6,7,9,10-tetrahydro-4h-pyrimido[1,2-d][1,4]oxazepin-10-yl)-N,N′,N′-trimethylethanediamide, reference compound] | 0.037 | – | – | 1 | 10 | >32 | 13 | – | – |
| CN(C)C(=O)C(=O)N(C)C1COCCn2c1nc(C(=O)NCc1ccc(F)cc1)c(O)c2=O (single isomer, unassigned; (-)) [Compound W, (−)N-(2-{[(4-fluorobenzyl)amino]carbonyl}-3-hydroxy-4-oxo-6,7,9,10-tetrahydro-4h-pyrimido[1,2-d][1,4]oxazepin-10-yl)-N,N′,N′-trimethylethanediamide, reference compound] | – | – | – | 3 | 29 | >73 | 67 | – | 0.026 |
